From patent US20260216112A1, “ACETYLCYSTEINE-STABILIZED GOLD NANOCLUSTERS FOR ACUTE KIDNEY INJURY, AND PREPARATION METHOD AND APPLICATION THEREOF” (priority 2021, published 2026) come the findings set out here.

Each structure is given as a SMILES string.

The nature of test [1]: ABTS free radical cation discoloration method. The conditions noted are these: concentration of […] (so in the source); absorbance at 734 nm; FIG. 6. It counts as biochemical. As for the experimental part:
The test for eliminating ABTS (2,2′-azino-bis(3-ethylbenzothiazoline-6-sulfonic acid)) free radicals by Au NCs-NAC.
The free radicals eliminating ability of Au NCs-NAC was tested using the ABTS free radical cation discoloration method. ABTS (7 mM) was dissolved in water, and 2.45 mM potassium persulfate was added to react for 12 hours to produce ABTS free radical cations (⋅ABTS+). Then, the absorbance values of the pure ⋅ABTS+solution (AB) and the mixed solution of different concentrations (12.5-100 μg/mL) of Au NCs-NAC and ⋅ABTS+ were measured at 734 nm. The formula for calculating ABTS eliminating efficiency is [(AB AP)/AB]*100. All measurements were performed in triplicate.

Another test relates to TNF-α. As to the kind of experiment: in vitro anti-inflammatory study, TNF-α ELISA. It counts as cell-based. As to conditions: LPS 400 ng/ml stimulation, RAW264.7 macrophage supernatant, FIG. 9. The text has this: (§1) Embodiment 3: Au NCs-NAC cytotoxicity and protection of kidney cells by eliminating various reactive oxygen species/reactive nitrogen species, and the standard MTT method was used to evaluate the effect of Au NCs-NAC on the survival rate of 293T renal embryonic cells. Furthermore, ELISA (enzyme-linked immunosorbent assay) kits for TNF-α and IL-6 are adopted to evaluate the levels of inflammatory factors in the cells.
(§2) For in vitro anti-inflammatory studies, both macrophages and 293T renal embryonic cells were seeded into 96-well plates. Then, 293T renal embryonic cells were treated with 400 ng/ml lipopolysaccharide (LPS) for 1 h. Then, the supernatant of 293T renal embryonic cell culture was transferred to a 96-well plate to culture RAW264.7 macrophages overnight. Finally, the TNF-α/IL-6 ELISA kit was used to detect the concentrations of TNF-α and IL-6 in the RAW264.7 macrophage supernatant.
(In an ELISA, binding on a coated surface is turned into a signal by an enzyme label.)

In test [2] the test system is glycerol-induced acute renal failure mice. The experiment in a line: glycerol-induced acute renal failure mice, serum creatinine and blood urea nitrogen. It counts as in vivo. As to conditions: 4 mg/kg injected 2 hours after glycerol, serum at 24 hours, versus phosphate buffer. The protocol:
All experimental operations were performed in accordance with the animal use and care system approved by the Clinical Center Animal Care and Use Committee. Female athymic mice (six weeks, 20-25 g) were injected with 8 mL/kg 50% glycerol solution intramuscularly into the hind legs to establish a mice model of acute renal failure. After 2 hours, the small molecule drug acetylcysteine or Au NCs-NAC was injected.
Mice were randomly divided into 5 groups: (1) healthy mice injected with phosphate buffer; (2) healthy mice injected with Au NCs-NAC; (3) glycerol-induced acute renal failure mice injected with phosphate buffer; (4) glycerol-induced acute renal failure mice injected with Au NCs-NAC; (5) glycerol-induced acute renal failure mice injected with acetylcysteine in the same dose of Au NCs-NAC. Healthy mice and mice with glycerol-induced acute renal failure were euthanized 24 hours later. The blood of the mice was centrifuged to obtain serum, and the creatinine and blood urea nitrogen contents were measured. The phosphate buffer used for injection was 100 μL, the injection dose of Au NCs-NAC was 4 mg/kg, and the injection dose of acetylcysteine was 4 mg/kg.

A further test has as its system IL-6. The experiment in a line: in vitro anti-inflammatory study, IL-6 ELISA. Format: cell-based. The conditions noted are these: LPS 400 ng/ml stimulation, RAW264.7 macrophage supernatant, FIG. 10.
Source text: as §1, §2

Test [3] can be described thus: superoxide anion removal, SOD assay kit. Format: biochemical. The conditions noted are these: concentration of 100 μg/mL; FIG. 5. As for the experimental part:
The efficiency of Au NCs-NAC in removing superoxide anions at different concentrations ([…]) was determined using the SOD assay kit (Sigma-Aldrich, USA). The test was conducted according to the instructions provided by the manufacture.

Test [4] in a line: hydroxyl radical antioxidant capacity (HORAC) kit. It counts as biochemical. As to conditions: concentration of 100 μg/mL; FIG. 4.

`CC(=O)N[C@@H](CS)C(=O)O` [acetylcysteine]: the “⋅ABTS+ eliminated (ABTS eliminating efficiency)” value in test [1] is on record as 68.9%. Moreover, the “production of inflammatory factor TNF-α” value in the test with TNF-α is “not able to achieve the same”. Further, the “serum blood urea nitrogen level” value in test [2] (FIG. 11) is listed as “cannot effectively reduce”. Moreover, the serum creatinine level result in test [2] (FIG. 12) was “cannot effectively reduce”. The “production of inflammatory factor IL-6” value in the test with IL-6 is recorded as “not able to achieve the same”. The molecule further registered a superoxide anions eliminated in test [3] of 6%. Also, the hydroxyl radicals eliminated in test [4] is 47.2%.
